Measurements as given in PubChem BioAssay (NCI).
“And” between values parts separate entries of the source, which are not always exact repeats. Equal entries are not always repeated.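 Briefly, cells in 96-well plates were exposed to five compound concentrations for 48 h, and endpoints were estimated by linear interpolation. GI50 is the concentration that inhibits growth by half. TGI denotes the concentration required for complete inhibition of growth.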

Columns and labels:
Assay in all cases: NCI tumour cell line growth inhibition, 48 h
[1] = test system: COLO 205 colon
[2] = test system: OVCAR-3 ovarian
[3] = test system: UACC-62 melanoma
[4] = test system: SR leukemia
[5] = test system: SNB-75 CNS
[6] = test system: HCC-2998 colon
[7] = test system: 786-0 renal
[8] = test system: A498 renal
[9] = test system: MDA-MB-231 breast
[10] = test system: OVCAR-5 ovarian

SMILES | TGI [1] | TGI [2] | TGI [3] | TGI [4] | TGI [5] | TGI [6] | TGI [7] | TGI [8] | TGI [9] | TGI [10] | GI50 [1] | GI50 [8] | GI50 [2] | GI50 [4] | GI50 [5] | GI50 [6] | GI50 [3] | GI50 [9] | GI50 [10]
C[C@]12CC[C@@H]3c4ccccc4CC[C@H]3[C@@H]1CC[C@@H]2O | > 100 µM | > 100 µM | > 100 µM | > 100 µM | > 100 µM | > 100 µM | > 100 µM | – | – | – | – | – | – | – | – | – | – | – | –
N[C@H]1CCN(c2c(F)cc3c(=O)c(C(=O)O)cn4c3c2Oc2cc3c(ccc5ccccc53)cc2-4)C1 | 9.28 µM | > 100 µM | > 100 µM | > 100 µM | – | 6.82 µM | > 100 µM | > 100 µM | 0.864 µM | > 100 µM | – | – | – | – | – | – | – | – | –
C/C(=N\NC(=O)c1cccnc1)c1cccc(/C(C)=N/NC(=O)c2cccnc2)n1 | > 100 µM | 47.3 µM | 5.7 µM | > 100 µM | 42.5 µM | > 100 µM | – | 68.1 µM | – | 8.28 µM | 4.15 µM | 4.86 µM | 2.05 µM | 4.56 µM | 10.3 µM | 2.17 µM | – | – | –
COc1ccc(/C=C(\C#N)c2nc(N)nc(N3N=C(C)CC3(C)C)n2)c(O)c1 | 30.9 µM | 28.3 µM | 34.6 µM | 35.7 µM | – | 38.2 µM | 30 µM | 69.7 µM | 44.8 µM | 34.2 µM | – | – | – | – | – | – | – | – | –
O=C1c2cc3c(cc2-c2c1c1ccc(Cl)cc1c(=O)n2C[C@H](O)[C@@H](O)[C@H](O)CO)OCO3 | 0.895 µM | 0.452 µM | 0.111 µM | – | – | 0.479 µM | – | 0.207 µM | 3.76 µM | 1.29 µM | 0.08 µM | 0.0673 µM | 0.0758 µM | – | – | 0.0638 µM | 0.0129 µM | 0.333 µM | 0.0524 µM
Cc1cc(O)c(C(C)C)cc1CN1CCCCC1 | > 100 µM | > 100 µM | > 100 µM | – | > 100 µM | > 100 µM | > 100 µM | > 100 µM | > 100 µM | > 100 µM | – | – | – | – | – | – | – | – | –
O=S(=O)(/N=C(\NO)Nc1ccc(Cl)cc1)c1ccc(S(=O)(=O)c2ccccc2)s1 | 34.6 µM | 55.9 µM | 33.7 µM | – | – | 29.7 µM | > 100 µM | 41.8 µM | 86.2 µM | 63.7 µM | – | – | – | – | – | – | – | – | –
CC(Sc1ccccc1)C(CO)(CO)[N+](=O)[O-] (stereo unspecified) | – | 29.4 µM | 29.9 µM | 5.72 µM | 35.4 µM | 31.5 µM | – | – | – | 36.9 µM | – | – | – | – | – | – | – | – | –
C[C@]12CCC(=O)C=C1CC[C@@H]1[C@@H]2[C@@H](O)C[C@@]2(C)[C@H]1CC[C@]2(O)C(=O)CO | > 100 µM | > 100 µM | > 100 µM | > 100 µM | > 100 µM | > 100 µM | > 100 µM | > 100 µM | > 100 µM | > 100 µM | – | – | – | – | – | – | – | – | –
COC(=O)C1C(C)N1C (stereo unspecified) | > 100 µM | > 100 µM | > 100 µM | – | > 100 µM | > 100 µM | – | – | – | – | – | – | – | – | – | – | – | – | –
O=C(CCN1CC2CCC(CC2)C1)c1cccs1 | 34.7 µM | 58 µM | 31.9 µM | 24.6 µM | 35 µM | 29 µM | 20.9 µM | > 100 µM | 34.4 µM | 33.1 µM | – | – | – | – | – | – | – | – | –
CC[C@@]1(O)C(=O)OCc2c1cc1n(c2=O)Cc2c-1nc1ccc(O)cc1c2CC[Si](C)(C)C | 1.16 µM | 0.127 µM | 0.0172 µM and 0.0149 µM | < 0.001 µM | – | 0.0641 µM and 0.0601 µM | – | 0.0279 µM | 12.9 µM | 0.267 µM and 0.375 µM | – | – | – | – | – | – | – | 0.12 µM | –
NCCNc1nc(N2CCCC2)c2nc(Cl)c(NCc3ccccc3)nc2n1 | 3.29 µM | 4.16 µM | 3.19 µM | 2.95 µM | 3.49 µM | 2.88 µM | 3.08 µM | 4.4 µM | 2.87 µM | 7.88 µM | – | – | – | – | – | – | – | – | –
O=S(=O)(O)c1cccc2c(N=Nc3c(O)ccc4ccccc34)cccc12 | > 100 µM | > 100 µM | > 100 µM | > 100 µM | > 100 µM | – | > 100 µM | > 100 µM | > 100 µM | > 100 µM | – | – | – | – | – | – | – | – | –
CC(=O)OC1CC(O)CC2=CCC3C4CCC(C(C)(O)C(O)CC5COC(=O)C5C)C4(C)CCC3C21C (stereo unspecified) | > 25 µM | > 25 µM | > 25 µM | > 25 µM | > 25 µM | > 25 µM | > 25 µM | > 25 µM | > 25 µM | > 25 µM | – | – | – | – | – | – | – | – | –
CC(=O)N(C)c1ccc2c(ccc[n+]2[O-])c1[N+](=O)[O-] | > 100 µM | > 100 µM | > 100 µM | – | > 100 µM | > 100 µM | > 100 µM | > 100 µM | – | > 100 µM | – | – | – | – | – | – | – | – | –
O=S1(=O)OC(c2ccc(O)cc2)(c2ccc(O)cc2)c2ccccc21 | > 100 µM | > 100 µM | > 100 µM | – | > 100 µM | > 100 µM | > 100 µM | > 100 µM | > 100 µM | > 100 µM | – | – | – | – | – | – | – | – | –
